Reference: publication PMC8976073 (Nature Communications, 2022)
Changes are numbered by the printed parent chain.

Experiments:
FPR2 [1] = target: T1, FPR2 (Homo sapiens, UniProt P25090); experiment: Inositol-phosphate (IP) accumulation assay, FPR2 (wild type and mutants) with chimeric GαΔ6qi4myr in HEK293F cells; assay type: cell-based; conditions: FPR2 WT; mean ± SEM; SEM
T1 construct: expressed in transfected cells; host or cells: HEK293F cells, pTT5 vector, co-transfected with GαΔ6qi4myr (1:2 w/w)
T1 sequence (P25090 1-351): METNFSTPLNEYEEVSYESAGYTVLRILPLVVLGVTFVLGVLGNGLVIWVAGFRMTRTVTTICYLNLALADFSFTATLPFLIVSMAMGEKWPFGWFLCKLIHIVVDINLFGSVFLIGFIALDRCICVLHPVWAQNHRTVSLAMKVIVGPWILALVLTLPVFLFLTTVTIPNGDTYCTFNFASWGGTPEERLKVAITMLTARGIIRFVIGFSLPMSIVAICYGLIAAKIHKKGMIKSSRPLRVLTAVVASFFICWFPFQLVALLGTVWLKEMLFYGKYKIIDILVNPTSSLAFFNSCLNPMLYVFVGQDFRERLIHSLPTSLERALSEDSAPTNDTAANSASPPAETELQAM
Protocol: (§1) Flag-tagged wild-type FPR1 and FPR2 and mutants were cloned into the pTT5 vector and expressed in HEK293F cells. Cells were cotransfected with the plasmids of receptor and a chimeric Gα protein GαΔ6qi4myr, which redirects the Gαi signaling pathway to the Gαq phospholipase-C pathway, at a ratio of 1:2 (w/w), and were harvested 48 h post transfection. The cell-surface expression was measured as described above.
(§2) The IP-One Gq assay kit (Cisbio Bioassays, 62IPAPEB) was used to measure the peptide agonist-induced IP production. […] Then, the cells were supplemented with 3 μl cryptate-labeled anti-IP1 monoclonal antibody (1:20 diluted in lysis and detection buffer) and 3 μl d2-labeled IP1, and incubated at room temperature for another 1 h. […] The accumulation of IP1, EC50, and pEC50 were calculated using nonlinear regression (curve fit) according to a standard dose–response curve in GraphPad Prism 8.0 (GraphPad software).

FPR2 [2] = target: T2, FPR2 (Homo sapiens, UniProt P25090, F110A); experiment: as above; assay type: cell-based; conditions: FPR2 F110A
T2 construct: expressed in transfected cells; host or cells: HEK293F cells, pTT5 vector, co-transfected with GαΔ6qi4myr (1:2 w/w)
T2 sequence (P25090 1-351 F110A): T1 sequence (P25090 1-351) with F110A
Protocol: as §1, §2

EC50 (FPR2 [1]): 126 nM | EC50 (FPR2 [2]): 110 nM
Structure (SMILES): CC[C@H](C)[C@H](NC(=O)[C@H](CCC(=O)O)NC(=O)[C@H](CO)NC(=O)[C@@H](NC(=O)[C@H](CC(C)C)NC(=O)[C@H](CC(C)C)NC(=O)[C@H](CC(C)C)NC(=O)[C@H](CC(C)C)NC(=O)[C@H](CS)NC(=O)[C@H](CO)NC(=O)[C@H](Cc1ccccc1)NC(=O)CNC(=O)[C@H](CCCNC(=N)N)NC(=O)[C@@H]1CCCN1C(=O)[C@H](C)NC(=O)[C@H](CCSC)NC=O)[C@@H](C)O)C(=O)N[C@@H](CC(=O)O)C(=O)N[C@@H](CC(C)C)C(=O)N1CCC[C@H]1C(=O)N[C@H](C(=O)N[C@@H](CCCCN)C(=O)N[C@@H](CCCNC(=N)N)C(=O)N[C@@H](CCCNC(=N)N)C(=O)N[C@@H](C)C(=O)O)C(C)C [fHN, N-formyl humanin]
